Test system: MES-induced seizure
Experiment: Maximal Electroshock Test (MES), anticonvulsant activity
Assay type: in vivo, CF-1 male albino mice
Procedure: Anticonvulsant activity was determined using the MES test, run according to the procedure described in detail below. Swinyard E A, Woodhead J H, White H S, Franklin M R. Experimental selection, quantification, and evaluation of anticonvulsants. In Levy R H, et al., eds. Antiepileptic Drugs. 3rd ed. New York: Raven Press, 1989:85-102 CF-1 male albino mice (25-35 g) were randomly selected into control and test groups, with the animals dosed with vehicle or test compound, at varying time-points and concentrations, respectively. On the study date, the mice were dosed by intraperitoneal (i.p.) injection with vehicle (30% Solutol) or test compound (50-250 mg/kg). Seizures were induced by trans-corneal electric shock using a 60-Hz alternating current, 50 mA, delivered for 0.2 sec. The mice in the test groups were subjected to electrical stimulus at time intervals between 15 minutes and 4 hours following administration of test compound. […] The test was complete when the entire course of the convulsion has been observed (typically, less than 1 minute after electrical stimulation). […] The ED50 value of the test compounds was the calculated dose required to block the hind limb tonic-extensor component of the MES-induced seizure in 50% of the rodents tested. […] Representative compounds of the present invention were tested according to the procedure described above, with results as listed in Table 1 below. Results are listed as (number of mice with full body tonic extension prevented)/(total number of mice tested) (@ a given time). ED50 values were determined at the time of peak effect (1 hr, Table 1).

[1] = 100 mg/kg i.p., 1.0 Hrs after dosing
[2] = 100 mg/kg i.p., 2 Hrs after dosing
[3] = 200 mg/kg i.p., 0.25 Hrs after dosing
[4] = 200 mg/kg i.p., 0.50 Hrs after dosing
[5] = 200 mg/kg i.p., 1.0 Hrs after dosing
[6] = 200 mg/kg i.p., 2 Hrs after dosing
[7] = 200 mg/kg i.p., 4 Hrs after dosing

NS(=O)(=O)NCc1c[s+]([O-])c2ccccc12 (single isomer, unassigned; (-)) [(−)-enantiomer, N-[(1-oxidobenzo[b]thien-3-yl)methyl]-sulfamide]
MES Activity: (number of mice with full body tonic extension prevented)/(total number of mice tested) [1]: 2/4
MES Activity: (number of mice with full body tonic extension prevented)/(total number of mice tested) [2]: 1/4
MES Activity: (number of mice with full body tonic extension prevented)/(total number of mice tested) [3]: 1/4
MES Activity: (number of mice with full body tonic extension prevented)/(total number of mice tested) [4]: 2/5
MES Activity: (number of mice with full body tonic extension prevented)/(total number of mice tested) [5]: 5/5
MES Activity: (number of mice with full body tonic extension prevented)/(total number of mice tested) [6]: 5/5
MES Activity: (number of mice with full body tonic extension prevented)/(total number of mice tested) [7]: 1/5

NS(=O)(=O)NCc1c[s+]([O-])c2ccccc12 (single isomer, unassigned; (+)) [(+)-enantiomer, N-[(1-oxidobenzo[b]thien-3-yl)methyl]-sulfamide]
MES Activity: (number of mice with full body tonic extension prevented)/(total number of mice tested) [1]: 1/4
MES Activity: (number of mice with full body tonic extension prevented)/(total number of mice tested) [2]: 0/4
MES Activity: (number of mice with full body tonic extension prevented)/(total number of mice tested) [3]: 0/3
MES Activity: (number of mice with full body tonic extension prevented)/(total number of mice tested) [4]: 4/5
MES Activity: (number of mice with full body tonic extension prevented)/(total number of mice tested) [5]: 5/5
MES Activity: (number of mice with full body tonic extension prevented)/(total number of mice tested) [6]: 5/5
MES Activity: (number of mice with full body tonic extension prevented)/(total number of mice tested) [7]: 1/5
ED50 (Mus musculus, ip, 1 h, mice, i.p., at time of peak effect (1 hr), probit analysis, read-out: ED50 (dose required to block the hind limb tonic-extensor component of the MES-induced seizure in 50% of the rodents)): 127 mg/kg

From patent publication US7897636B2, “Sulfamide derivative useful for the treatment of epilepsy” (Janssen Pharmaceutica NV, priority 2007, dated 2011)
